Data as given in US20080124413A1, “NOVEL COMPOSITION CONTAINING EXTRACTS OF BUTYROSPERMUM PARKII AND THE USE OF SUCH A COMPOSITION FOR PREPARING A MEDICAMENT OR A DIETARY SUPPLEMENT FOR THE TREATMENT OR PREVENTION OF INFLAMMATION […] OR PAIN” (BSP Pharma A/S, priority 1999, published 2008).
Where two headings read alike, the source gives them in different places.

Columns and labels:
[1] = system: rat; conditions: The Merck Index; cited from earlier work
[2] = system: BALB/c mouse arthritis induced by collagen mono-clonal antibody (mAb) and lipopolysaccharide; format: in vivo; conditions: cyclophosphamide 10 mg/kg x3 orally, p<0.05 Wilcoxon
Experimental: BPC was dissolved in 100% corn oil. […] Dosing volume was 5 ml/kg.
In this study, male BALB/c mice weighing 20±1 grams were used. Space allocation for 5 mice was 45×23×15 cm. The animals were housed in APEC® (Allentown Gaging, Allentown, N.J. 08501, U.S.A.) cages and maintained in a hygienic environment under controlled temperature (22° C.-24° C.) and humidity (60%-80%) with 12-hours light/dark cycles for at least one week prior to being used. Free access to standard lab chow for mice and tap water was granted. All aspects of this work including housing, experimentation and disposal of animals were performed in general according to the International Guiding Principles for Biomedical Research Involving Animals (CIOMS Publication No. ISBN 92 90360194, 1985).
The study was performed according to the method of Terato et al. (Autoimmunity, 22:137-147, 1995).
Groups of 5 BALB/c mice, 6-8 weeks of age, were used for the induction of arthritis by monoclonal antibodies (mAbs) and lipopolysaccharide (LPS). […] This was followed by intravenous 25 μg of LPS 72 hours later (day 3). From day 3, test substances were administered orally once daily for 3 consecutive days. At day 5, one or two paws (particularly the hind) began to appear red and swollen, and from day 7, arthritis symptoms of the two hind paws became severely red and swollen in untreated mice. A plethysmometer (Ugo Basile Cat # 7150) with water cell (12 mm diameter) was used for the measurement of increase in both hind paw volumes at day 7, 10, 14 and 17. The percent of inhibition of increased paw volume was calculated as follows:
Inhibition (%): [1−(Tn−To)/(Cn−Co)]×100
Co (Cn): Volume of day 0 (day n) in vehicle control (both hind paws summed)
To (Tn): Volume of day 0 (day n) in test compound-treated group (both hind paws summed)
Wilcoxon rank sum test for paired differences was used for comparing swelling in the test compound treated groups with swelling in the control group.

Question: What does the source list for `O=P1(N(CCCl)CCCl)NCCCO1` (stereo not shown) [cyclophosphamide]?
Answer: LD50 [1]: 94 mg/kg; reduction of hind paw edema relative to the vehicle-treated control group ([2]; day 10): 79%; reduction of hind paw edema relative to the vehicle-treated control group ([2]; day 14): 91%; reduction of hind paw edema relative to the vehicle-treated control group ([2]; day 17): 90%
